Test results from ChEMBL document CHEMBL1132030, “Photoactivatable peptides based on BMS-197525: a potent antagonist of the human thrombin receptor (PAR-1)” (Bioorg Med Chem Lett, 1999).
Where a SMILES comes first, the peptide text is derived from it. [ ]: non-standard residue; d: D form. The star is where a group is joined. Phe(4-guanidino) = N=C(N)Nc1ccc(C[C@H](N)C(=O)O)cc1; Bpa = N[C@@H](Cc1ccc(C(=O)c2ccccc2)cc1)C(=O)O; Phe(4-F) = N[C@@H](Cc1ccc(F)cc1)C(=O)O; NBD = O=[N+]([O-])c1ccc(*)c2nonc12; Orn = NCCC[C@H](N)C(=O)O; X2 = O=C(/C=C/c1ccccc1)*

Target: T1, Proteinase-activated receptor 1 (Homo sapiens, UniProt P25116)
T1 sequence (P25116 whole entry): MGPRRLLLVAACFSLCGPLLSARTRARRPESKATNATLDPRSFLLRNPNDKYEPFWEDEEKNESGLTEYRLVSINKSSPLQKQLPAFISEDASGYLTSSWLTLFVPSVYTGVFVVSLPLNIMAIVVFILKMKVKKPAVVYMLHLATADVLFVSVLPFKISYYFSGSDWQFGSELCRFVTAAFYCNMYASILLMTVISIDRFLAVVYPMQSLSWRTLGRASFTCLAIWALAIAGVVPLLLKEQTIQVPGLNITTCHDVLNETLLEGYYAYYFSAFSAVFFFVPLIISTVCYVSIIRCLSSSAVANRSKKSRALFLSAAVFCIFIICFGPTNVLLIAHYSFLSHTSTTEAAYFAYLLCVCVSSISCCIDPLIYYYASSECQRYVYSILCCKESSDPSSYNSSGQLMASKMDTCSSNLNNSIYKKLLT
Experiment: Human Thrombin receptor 1 (PAR-1) antagonistic ability to inhibit SFLLRN-NH2 (2.7 uM)-induced platelet aggregation; Not active at 110 uM concentration; call rule not given here
Assay type: functional

IC50: Not Active
SMILES: CC(C)C[C@H](NC(=O)[C@H](Cc1ccc(NC(=N)N)cc1)NC(=O)[C@H](Cc1ccc(F)cc1)NC(=O)/C=C/c1ccccc1)C(=O)N[C@@H](Cc1ccc(C(=O)c2ccccc2)cc1)C(=O)N[C@@H](CCCNc1ccc([N+](=O)[O-])c2nonc12)C(=O)O (X2-[Phe(4-F)][Phe(4-guanidino)]L[Bpa][Orn](NBD)-OH)
